Broadly, the IC50 is the midpoint of a concentration-inhibition curve.

The first experiment deals with T1, purified recombinant human PARP (Homo sapiens, UniProt P09874).
T1 construct: purchased Trevigan (Gaithersburg, Md.)
T1 sequence (P09874 whole entry): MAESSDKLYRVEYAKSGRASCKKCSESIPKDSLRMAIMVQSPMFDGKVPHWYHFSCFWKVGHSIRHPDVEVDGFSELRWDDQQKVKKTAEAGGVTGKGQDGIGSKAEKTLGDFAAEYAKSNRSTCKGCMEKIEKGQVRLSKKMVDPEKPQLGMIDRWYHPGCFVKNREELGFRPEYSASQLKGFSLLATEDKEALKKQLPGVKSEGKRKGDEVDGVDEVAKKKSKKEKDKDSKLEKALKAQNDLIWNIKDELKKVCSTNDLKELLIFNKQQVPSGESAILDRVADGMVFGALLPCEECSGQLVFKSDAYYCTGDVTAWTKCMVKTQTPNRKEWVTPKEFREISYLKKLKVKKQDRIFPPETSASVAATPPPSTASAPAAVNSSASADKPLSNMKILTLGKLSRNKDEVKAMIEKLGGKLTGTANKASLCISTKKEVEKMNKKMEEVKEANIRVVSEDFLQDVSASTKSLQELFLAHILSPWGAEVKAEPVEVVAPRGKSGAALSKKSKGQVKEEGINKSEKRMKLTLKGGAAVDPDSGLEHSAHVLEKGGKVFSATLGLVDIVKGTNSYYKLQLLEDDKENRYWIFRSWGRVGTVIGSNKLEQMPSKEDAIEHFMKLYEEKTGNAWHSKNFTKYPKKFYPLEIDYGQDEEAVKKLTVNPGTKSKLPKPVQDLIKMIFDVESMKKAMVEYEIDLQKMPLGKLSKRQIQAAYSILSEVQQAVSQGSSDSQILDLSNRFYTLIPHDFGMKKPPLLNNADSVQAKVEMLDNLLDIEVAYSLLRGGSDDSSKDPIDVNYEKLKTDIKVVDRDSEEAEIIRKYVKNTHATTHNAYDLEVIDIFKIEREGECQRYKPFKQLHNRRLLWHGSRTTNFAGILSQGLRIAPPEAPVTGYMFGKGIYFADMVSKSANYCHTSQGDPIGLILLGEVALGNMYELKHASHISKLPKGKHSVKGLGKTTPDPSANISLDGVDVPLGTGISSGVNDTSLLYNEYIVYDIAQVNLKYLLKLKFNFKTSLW
The experiment in a line: PARP enzyme assay (IC50). Particulars: IC50 (μM), approximate IC50 values, [3H]NAD. It counts as biochemical. How it is done:
The reaction is initiated by adding enzyme and incubating the mixture at 25° C. After 2 minutes of incubation, the reaction is terminated by adding 500 microliters of ice cold 30% (w/v) trichloroacetic acid. The precipitate formed is transferred onto a glass fiber filter Packard Unifilter-GF/C) and washed three times with 70% ethanol. After the filter is dried, the radioactivity is determined by scintillation counting.
As to `Cc1nc2cccc3c2n1CCNC3=O`, the IC50 amounted to 0.141 µM. The same measure, in the same setting: to `O=C1NCCn2c(Cc3ccccc3)nc3cccc1c32` belongs 0.108 µM. On the same count and under the same terms, to `O=c1[nH]c2ccc(N3C[C@@H]4C[C@H]3CN4)nc2c2ccccc12` belongs 0.042 µM.

Staying with this experiment, now noted: approximate IC50 values, [3H]NAD, read-out: IC50.
Regarding `O=C1NN=Cc2c(Br)[nH]c3cccc1c23`, the IC50 amounted to 0.026 µM.

As for `Cn1cc2c3c(cccc31)C(=O)NN=C2`, the IC50 was 0.146 µM. Still for that read-out and setting: to `O=C1NN=Cc2c(Br)n(Cc3ccccc3)c3cccc1c23` belongs 20 µM.

Consider `O=C1NN=C(c2ccccc2)c2c[nH]c3cccc1c23`, for which the IC50 is 0.021 µM. Still for that read-out and setting: the value for `CC(C)(C)OC(=O)n1cc2c3c(cccc31)C(=O)NN=C2` was 1.2 µM; that for `Cn1c(-c2ccccc2)c2c3c(cccc31)C(=O)NN=C2` was 0.047 µM. As for `O=C1NN=Cc2c(-c3ccc(F)cc3)[nH]c3cccc1c23`, the IC50 is 0.073 µM.

On to `O=C1NN=Cc2c(-c3ccccc3)[nH]c3cccc1c23`, for which the IC50 was determined as 0.01 µM.

`CC(C)(C)OC(=O)Cn1c(Br)c2c3c(cccc31)C(=O)NN=C2`: the IC50 is 24.1 µM.

Regarding `O=C1NN=C(CN2CCOCC2)c2c[nH]c3cccc1c23`, the IC50 was 0.037 µM. For the compound `CN1CCN(CC2=NNC(=O)c3cccc4[nH]cc2c34)CC1`, the IC50 worked out at 0.037 µM. Consider `O=C1NCCn2c(-c3cc(O)cc(O)c3)nc3cccc1c32`, for which the IC50 turned out to be 0.089 µM. Still for that read-out and setting: the value for `O=C1NCCn2c(-c3cc(F)cc(F)c3)nc3cccc1c32` was 0.061 µM; that for `O=C1NCCn2c(-c3cccc(Cl)c3)nc3cccc1c32` was 0.08 µM; that for `O=C1NCCn2cnc3cccc1c32` was 0.299 µM. Same read-out and setting: to `O=C1NCCn2c(-c3ccc(O)cc3O)nc3cccc1c32` belongs 0.186 µM; to `CC(Cc1nc2cccc3c2n1CCNC3=O)c1ccccc1` (stereo not shown), 0.13 µM. On to `Cn1cc(-c2nc3cccc4c3n2CCNC4=O)c2ccccc21`, for which the IC50 turned out to be 0.268 µM. With `O=C(O)c1ccc(-c2nc3cccc4c3n2CCNC4=O)cc1`, the IC50 is 1.19 µM. `O=C1NCCn2c(-c3cc(O)c(O)c(O)c3)nc3cccc1c32`: the IC50 came out at 0.324 µM. For the compound `O=C1NCCn2c(-c3cccnc3)nc3cccc1c32`, the IC50 is 0.168 µM.

Turning to `O=C1NCCn2c(-c3ccccc3F)nc3cccc1c32`, the IC50 is 0.329 µM. On to `O=C1NCCn2c(-c3ccc4ccccc4n3)nc3cccc1c32`, for which the IC50 was 0.299 µM.

On to `COc1ccc(CC(C)c2nc3cccc4c3n2CCNC4=O)cc1` (stereo not shown), for which the IC50 amounted to 0.128 µM.

Consider `CCOC(=O)[C@@H]1C[C@H]1c1nc2cccc3c2n1CCNC3=O`, for which the IC50 stood at 0.108 µM.

In the case of `CN(C)CCCOc1ccc(-c2nc3cccc4c3n2CCNC4=O)cc1`, the IC50 was 0.237 µM. With `COCc1nc2cccc3c2n1CCNC3=O`, the IC50 was 0.227 µM. `COc1ccc(/C=C/c2nc3cccc4c3n2CCNC4=O)cc1`: the IC50 stood at 0.142 µM. Still for that read-out and setting: the value for `O=C1NCCn2c(-c3ccco3)nc3cccc1c32` was 0.108 µM; that for `O=C1NCCn2c(C#Cc3ccccc3)nc3cccc1c32` was 0.044 µM. Take `O=C1NCCn2c(-c3ccc([N+](=O)[O-])o3)nc3cccc1c32`: the IC50 was 0.021 µM. On the same count and under the same terms, the value for `CC(=O)OCc1ccc(-c2nc3cccc4c3n2CCNC4=O)o1` was 0.068 µM; that for `O=C1NCCn2c(/C=C/c3ccccc3)nc3cccc1c32` was 0.071 µM. For `O=C1NCCn2c(C=C(c3ccccc3)c3ccccc3)nc3cccc1c32`, the IC50 worked out at 0.33 µM. Still for that read-out and setting: the value for `O=C1NCCn2c(-c3cccc(Br)c3)nc3cccc1c32` was 0.106 µM.

With `O=C1NCCn2c(-c3ccc(-c4ccc(Cl)cc4)o3)nc3cccc1c32`, the IC50 is 0.96 µM.

Turning to `O=C1NCCn2c(-c3ccc(-c4cccc(Cl)c4)o3)nc3cccc1c32`, the IC50 is 0.2 µM.

`O=C1NCCn2c(-c3ccc(-c4ccccc4Cl)o3)nc3cccc1c32`: the IC50 was found to be 0.145 µM.

As to `O=C1NCCn2c(-c3ccc(Br)s3)nc3cccc1c32`, the IC50 worked out at 0.094 µM. For `O=C(O)CCc1nc2cccc3c2n1CCNC3=O`, the IC50 is 1.44 µM.

`O=C(O)c1cccc(-c2nc3cccc4c3n2CCNC4=O)c1`: the IC50 turned out to be 0.155 µM. On the same count and under the same terms, the value for `O=C1NCCn2c(Cn3ccnc3)nc3cccc1c32` was 0.738 µM. In the case of `O=C1NCCn2c(CN3CCCc4ccccc43)nc3cccc1c32`, the IC50 came to 0.818 µM.

Turning to `CN(Cc1nc2cccc3c2n1CCNC3=O)c1ccccc1`, the IC50 was found to be 0.28 µM. `CN1CCN(Cc2nc3cccc4c3n2CCNC4=O)CC1`: the IC50 is 1.57 µM. For `CN(C)CCN(C)Cc1nc2cccc3c2n1CCNC3=O`, the IC50 came to 0.288 µM. The same measure, in the same setting: to `CN(Cc1nc2cccc3c2n1CCNC3=O)C1CCCCC1` belongs 0.46 µM; to `O=C1NCCn2c(CN3CCN(c4ccccc4)CC3)nc3cccc1c32`, 1.9 µM. `CCCCN(CCCC)Cc1nc2cccc3c2n1CCNC3=O`: the IC50 worked out at 1.75 µM. The same measure, in the same setting: the value for `CN(C)CCCN(C)Cc1nc2cccc3c2n1CCNC3=O` was 0.473 µM; that for `O=C1CCN(Cc2nc3cccc4c3n2CCNC4=O)CC1` was 0.329 µM. Regarding `COC(=O)C1CN(Cc2nc3cccc4c3n2CCNC4=O)CCC1=O` (stereo not shown), the IC50 turned out to be 0.441 µM. As to `O=C1NCCn2c(CN3CCCCC3CO)nc3cccc1c32` (stereo not shown), the IC50 is 0.337 µM. Still for that read-out and setting: the value for `O=C1NCCn2c(CN3CCCCCC3)nc3cccc1c32` was 1 µM; that for `O=C1NCCn2c(CN3CCCCC3)nc3cccc1c32` was 0.801 µM; that for `O=C1NCCn2c(CN3CCOCC3)nc3cccc1c32` was 0.523 µM. Same read-out and setting: to `O=C1NCCn2c(CN3CCN(Cc4ccccc4)CC3)nc3cccc1c32` belongs 2.19 µM; to `O=C1NCCn2c(CN3CCCCCCC3)nc3cccc1c32`, 0.6 µM; to `CCCCCN(CCCCC)Cc1nc2cccc3c2n1CCNC3=O`, 0.915 µM. On the same count and under the same terms, the value for `CCCCCCN(CCCCCC)Cc1nc2cccc3c2n1CCNC3=O` was 0.915 µM; that for `CC(C)N(Cc1nc2cccc3c2n1CCNC3=O)C(C)C` was 0.647 µM.

As for `CCN(CC)Cc1nc2cccc3c2n1CCNC3=O`, the IC50 worked out at 0.535 µM. Consider `COc1ccc(N(C)Cc2nc3cccc4c3n2CCNC4=O)cc1`, for which the IC50 turned out to be 0.121 µM. Same read-out and setting: the value for `O=C1NCCn2c(CN3CC4CC3CN4Cc3ccccc3)nc3cccc1c32` (stereo not shown) was 0.115 µM; that for `CCCN(CCC)Cc1nc2cccc3c2n1CCNC3=O` was 0.204 µM.

Regarding `CN(C)Cc1nc2cccc3c2n1CCNC3=O`, the IC50 is 0.068 µM. The same measure, in the same setting: the value for `O=C1NCCn2c(CN(Cc3ccccc3)Cc3ccccc3)nc3cccc1c32` was 0.218 µM; that for `CC(C)(C)OC(=O)N1CCN(Cc2nc3cccc4c3n2CCNC4=O)CC1` was 0.266 µM; that for `O=C1NCCn2c(CN3CCN(Cc4ccc5c(c4)OCO5)CC3)nc3cccc1c32` was 0.12 µM.

In the case of `O=C1NCCn2c(COCc3ccccc3)nc3cccc1c32`, the IC50 came to 0.434 µM. The same measure, in the same setting: to `CN(C)CCN(Cc1ccccc1)Cc1nc2cccc3c2n1CCNC3=O` belongs 0.153 µM; to `O=C1NCCn2c(CN(CCc3ccccc3)Cc3ccccc3)nc3cccc1c32`, 10.5 µM. For `O=C1NCCn2c(CN3CCc4ccccc4C3)nc3cccc1c32`, the IC50 worked out at 0.193 µM. On the same count and under the same terms, to `COc1cc2c(cc1OC)CN(Cc1nc3cccc4c3n1CCNC4=O)CC2` belongs 0.713 µM. Regarding `CC(C)(C)OC(=O)[C@@H]1CCCN1Cc1nc2cccc3c2n1CCNC3=O`, the IC50 was 0.349 µM.

Consider `O=C(NCCN1CCOCC1)c1cccc(-c2nc3cccc4c3n2CCNC4=O)c1`, for which the IC50 was determined as 0.448 µM. The same measure, in the same setting: to `O=C(NCCN1CCCC1)c1cccc(-c2nc3cccc4c3n2CCNC4=O)c1` belongs 0.321 µM; to `O=C(NCCN1CCCCC1)c1cccc(-c2nc3cccc4c3n2CCNC4=O)c1`, 0.376 µM; to `O=C1NCCn2c(-c3cccc(C(=O)N4CCN(Cc5ccc6c(c5)OCO6)CC4)c3)nc3cccc1c32`, 0.635 µM. Consider `CC(C)(C)OC(=O)N1CCN(C(=O)c2cccc(-c3nc4cccc5c4n3CCNC5=O)c2)CC1`, for which the IC50 was 0.583 µM. `CN(C)CCCN(C)C(=O)c1cccc(-c2nc3cccc4c3n2CCNC4=O)c1`: the IC50 is 0.199 µM.

In the case of `CN(CCC1CCCN1C)C(=O)c1cccc(-c2nc3cccc4c3n2CCNC4=O)c1` (stereo not shown), the IC50 was found to be 1.24 µM. `CCN(CC)CCNC(=O)c1cccc(-c2nc3cccc4c3n2CCNC4=O)c1`: the IC50 is 0.449 µM.

With `CN(C)CCNC(=O)c1cccc(-c2nc3cccc4c3n2CCNC4=O)c1`, the IC50 was determined as 0.246 µM. The same measure, in the same setting: the value for `CCN(CC)CCCNC(=O)c1cccc(-c2nc3cccc4c3n2CCNC4=O)c1` was 0.179 µM. On to `O=C1NCCn2c(-c3cccc(C(=O)N4CC5CC4CN5Cc4ccccc4)c3)nc3cccc1c32` (stereo not shown), for which the IC50 amounted to 0.405 µM. `COC(=O)C1CN(C(=O)c2cccc(-c3nc4cccc5c4n3CCNC5=O)c2)CCC1=O` (stereo not shown): the IC50 amounted to 0.375 µM.

On to `COc1ccc2[nH]c(=O)c3ccccc3c2n1`, for which the IC50 amounted to 0.216 µM. Regarding `COc1ccc2c(c1)c(=O)[nH]c1cccnc12`, the IC50 amounted to 4.15 µM. In the case of `O=c1[nH]c2ccc(Cl)nc2c2ccccc12`, the IC50 was 2.1 µM. Regarding `O=c1[nH]c2ccc(O)nc2c2ccccc12`, the IC50 was found to be 0.114 µM. Same read-out and setting: to `O=c1[nH]c2ccc(OCc3ccccc3)nc2c2ccccc12` belongs 20 µM; to `O=c1[nH]c2cc(Cl)cnc2c2ccccc12`, 0.292 µM; to `Nc1cnc2c(c1)[nH]c(=O)c1ccccc12`, 0.18 µM. The same measure, in the same setting: the value for `O=c1[nH]c2ccc(NCCN3CCOCC3)nc2c2ccccc12` was 0.339 µM. On to `O=c1[nH]c2ccc(N3CCNCC3)nc2c2ccccc12`, for which the IC50 came to 0.045 µM. On the same count and under the same terms, to `CC(C)N1CCN(c2ccc3[nH]c(=O)c4ccccc4c3n2)CC1` belongs 0.179 µM; to `O=c1[nH]c2ccc(N3CCN(CC4CCCO4)CC3)nc2c2ccccc12` (stereo not shown), 0.179 µM. Same read-out and setting: to `CN(C)CC(=O)Nc1ccc2[nH]c(=O)c3ccccc3c2n1` belongs 0.098 µM; to `O=C(CN1CCC(N2CCCC2)CC1)Nc1ccc2[nH]c(=O)c3ccccc3c2n1`, 0.142 µM.

Values taken from patent US7235557B2, “Compounds and their uses” (MGI GP, Inc., priority 2000, dated 2007).
